Results on 14 molecules are retold here after PubChem BioAssay AID256 (DTP/NCI, 2004).

Toxic doses and inconclusive results are not listed.

This assay concerns CD2F1 mice, L1210 leukemia ip, survival T/C. In words: NCI In Vivo Anticancer Drug Screen. Data for tumor model L1210 Leukemia (intraperitoneal) in CD2F1 (CDF1) mice. Particulars: higher = longer survival. The gist of the method:
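Read-out first: treated-group measurement over vehicle-control measurement, expressed as a ratio. Animals bore a transplanted tumor line and were dosed with compound or vehicle.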

Setting [1] is: endpoint: mean survival time, dose: 100.0 mg/kg/injection, schedule: Q04DX003 (ip), vehicle: saline with Tween-80.
Setting [2] is: endpoint: mean survival time, dose: 200.0 mg/kg/injection, schedule: Q04DX003 (ip), vehicle: saline with Tween-80.
[3] abbreviates: endpoint: mean survival time, dose: 100.0 mg/kg/injection, schedule: Q01DX001 (ip), vehicle: saline with Tween-80.
[4] abbreviates: endpoint: mean survival time, dose: 200.0 mg/kg/injection, schedule: Q01DX001 (ip), vehicle: saline with Tween-80.

Regarding `O=C(O)CCC(=O)c1ccc(Cl)c(Cl)c1`, the T/C by setting is: (endpoint: mean survival time, dose: 50.0 mg/kg/injection, schedule: Q01DX009 (ip), vehicle: saline with Tween-80) 102 % of control; (endpoint: mean survival time, dose: 100.0 mg/kg/injection, schedule: Q01DX009 (ip), vehicle: saline with Tween-80) 96 % of control; under setting [1], 98 % of control; under setting [2], 91 % of control.

As to `CC(=O)SCCCCl`, the T/C reads like this: (endpoint: mean survival time, dose: 100.0 mg/kg/injection, schedule: Q01DX009 (ip), vehicle: saline) 97 % of control; (endpoint: mean survival time, dose: 200.0 mg/kg/injection, schedule: Q01DX009 (ip), vehicle: saline) 101 % of control.

With `CCCCNC(C)(C)C(SSSC(c1cccs1)C(C)(C)NCCCC)c1cccs1` (stereo not given), the T/C is 100 % of control (endpoint: mean survival time, dose: 100.0 mg/kg/injection, schedule: Q01DX009 (ip), vehicle: saline sonified) and 103 % of control (endpoint: mean survival time, dose: 200.0 mg/kg/injection, schedule: Q01DX009 (ip), vehicle: saline sonified).

For the molecule `C=C1c2cccc(O)c2C(O)=C2C(=O)[C@]3(O)C(O)=C(C(N)=O)C(=O)[C@@H](N(C)C)[C@@H]3[C@@H](O)[C@H]12`, the T/C was 96 % of control (endpoint: median survival time, dose: 12.5 mg/kg/injection, schedule: Q01DX009 (ip), vehicle: Klucel (hydroxypropylcellulose) (HPC)); 104 % of control (endpoint: median survival time, dose: 25.0 mg/kg/injection, schedule: Q01DX009 (ip), vehicle: Klucel (hydroxypropylcellulose) (HPC)); 107 % of control (endpoint: median survival time, dose: 50.0 mg/kg/injection, schedule: Q01DX009 (ip), vehicle: Klucel (hydroxypropylcellulose) (HPC)); 114 % of control (endpoint: median survival time, dose: 100.0 mg/kg/injection, schedule: Q01DX009 (ip), vehicle: Klucel (hydroxypropylcellulose) (HPC)).

For `O=c1c(-c2ccccc2)c1-c1ccccc1`, under setting [1], the T/C is 93 % of control.

For `COc1ccc(N(C)c2ccc(C(=C3C=CC(=[N+](C)CCO)C=C3)c3ccc(N(C)CCO)cc3)cc2)cc1`, the T/C (endpoint: mean survival time, dose: 6.25 mg/kg/injection, schedule: Q04DX002 (ip), vehicle: saline with Tween-80) is 108 % of control and the T/C (endpoint: mean survival time, dose: 25.0 mg/kg/injection, schedule: Q04DX002 (ip), vehicle: saline with Tween-80) was 108 % of control.

Regarding `CC(C)CCCN`, the T/C runs as follows: (endpoint: mean survival time, dose: 100.0 mg/kg/injection, schedule: Q01DX001 (ip), vehicle: saline) 100 % of control; (endpoint: mean survival time, dose: 200.0 mg/kg/injection, schedule: Q01DX001 (ip), vehicle: saline) 97 % of control; (endpoint: mean survival time, dose: 400.0 mg/kg/injection, schedule: Q01DX001 (ip), vehicle: saline) 97 % of control.

As for `CC1CC(C)(C)N=C(CCCCCCl)O1` (stereo not given), the T/C runs as follows: (endpoint: mean survival time, dose: 50.0 mg/kg/injection, schedule: Q04DX002 (ip), vehicle: saline with Tween-80) 101 % of control; under setting [3], 103 % of control; (endpoint: mean survival time, dose: 100.0 mg/kg/injection, schedule: Q04DX002 (ip), vehicle: saline with Tween-80) 108 % of control; under setting [4], 105 % of control; (endpoint: mean survival time, dose: 200.0 mg/kg/injection, schedule: Q04DX002 (ip), vehicle: saline with Tween-80) 112 % of control.

As to `C[N+](C)(C)CCOC(=O)c1cc(CBr)cc(CBr)c1`, the T/C (endpoint: mean survival time, dose: 100.0 mg/kg/injection, schedule: Q04DX003 (ip), vehicle: saline) was 103 % of control.

For the molecule `CC(=O)NC/C(Cl)=C/Cl`, the T/C under setting [1] was 99 % of control; the T/C under setting [2] was 96 % of control; the T/C (endpoint: mean survival time, dose: 400.0 mg/kg/injection, schedule: Q04DX003 (ip), vehicle: saline with Tween-80) is 88 % of control.

On to `NC1=NN(c2ccccc2)CC1`, for which the T/C is, setting by setting: (endpoint: mean survival time, dose: 5.0 mg/kg/injection, schedule: Q01DX009 (ip), vehicle: saline with Tween-80) 96 % of control; (endpoint: mean survival time, dose: 5.0 mg/kg/injection, schedule: Q04DX003 (ip), vehicle: saline with Tween-80) 94 % of control; (endpoint: mean survival time, dose: 10.0 mg/kg/injection, schedule: Q01DX009 (ip), vehicle: saline with Tween-80) 96 % of control; (endpoint: mean survival time, dose: 10.0 mg/kg/injection, schedule: Q04DX003 (ip), vehicle: saline with Tween-80) 91 % of control; (endpoint: mean survival time, dose: 20.0 mg/kg/injection, schedule: Q01DX009 (ip), vehicle: saline with Tween-80) 106 % of control; (endpoint: mean survival time, dose: 20.0 mg/kg/injection, schedule: Q04DX003 (ip), vehicle: saline with Tween-80) 86 % of control.

`CCOP(=O)(C/C(=N\Nc1ccc([N+](=O)[O-])cc1[N+](=O)[O-])c1ccccc1)c1ccccc1` (stereo not given): the T/C reads like this: under setting [3], 90 % of control; under setting [4], 92 % of control; (endpoint: mean survival time, dose: 400.0 mg/kg/injection, schedule: Q01DX001 (ip), vehicle: saline with Tween-80) 97 % of control.

On to `Cc1nc2ccc(CCN3CCN(c4ccccc4Cl)CC3)cc2[nH]1`, for which the T/C (endpoint: mean survival time, dose: 50.0 mg/kg/injection, schedule: Q04DX003 (ip), vehicle: Klucel (hydroxypropylcellulose) (HPC)) was 112 % of control.

With `C[CH2][Ge]([CH2]C)[CH2]C.C[CH2][Ge]([CH2]C)[CH2]C`, the T/C is 104 % of control (endpoint: mean survival time, dose: 50.0 mg/kg/injection, schedule: Q04DX003 (ip), vehicle: saline with Tween-80); 100 % of control under setting [1]; 104 % of control under setting [2].
